Holding throughout (type): biochemical
Test [1] concerns the target T1, histones (reconstituted nucleosome) (Homo sapiens, UniProt P04908+P06899+P62805+P68431).
T1 construct: made in house
Put plainly: Protein selective acetylation of reconstituted nucleosome mixed with cytoplasm fraction (western blotting, acetylated lysine antibody). The settings on record: reconstituted nucleosome + cytoplasm fraction 15%, Ligand-DSH 2 to 5 μM, acyl donor 1 mM, TCEP 100 μM, room temperature, 5 hours; FIG. 3A. An excerpt:
(§1) Proteins were separated on a 4-20% SDS-PAGE gel, and transferred to a PVDF membrane, followed by blocking with 5% skim milk suspended in TBST for the reaction between the PVDF membrane and primary antibodies. The primary antibodies used were as follows.
(§2) Acetylated-lysine antibody (#9441, Cell Signaling), anti-acetyl Histone H4 (Lys77) (ABE186, Millipore), anti-acetyl Histone H2B (Lys120) (ab176430, Abcam), malonylated-lysine antibody (PTM-901, PTM Biolabs), glutarylated-lysine antibody (PTM-1151, PTM Biolabs), butyrylated-lysine antibody (PTM-301, PTM Biolabs), 2-hydroisobutyrylated antibody (PTM-801, PTM Biolabs), streptavidin-HRP (#3999S, Cell Signaling).
(§3) After washing with TBST, a secondary antibody (Anti-Rabbit IgG, HRP-linked, NA934V, GE) was reacted. The PVDF membrane was treated with a chemilluminescent detection reagent Luminata Forte Western HRP Substrate (Millipore), and the detection was performed using ImageQuant LAS 4000 (GE healthcare life sciences).
(§4) A buffer solution (20 mM Tris-HCl, pH 7.5) containing a reconstituted nucleosome (33 μg/mL 601 DNA) and a cytoplasm fraction (15%) was added with Ligand-DSH (2 to 5 μM), acyl CoA (1 mM), and TCEP (100 μM), followed by reaction at room temperature for 5 hours. Thereafter, western blotting was performed.
First, protein selectivity was evaluated. A reconstituted nucleosome prepared in accordance with a known method (Tachiwana, H. et al., Proceedings of the National Academy of Sciences of the United States of America 2010, 107, 10454-10459) and cytoplasm fractions acquired from living cells were mixed. Then, evaluation was carried out on whether or not the newly developed catalyst could selectively acetylate histones by western blotting using an acetylation lysine antibody (FIG. 3A).
For orientation: A western blot detects proteins with antibodies after separation by electrophoresis.

For test [2], the target named is T1, histones (reconstituted nucleosome). Put plainly: Acylation other than acetylation with catalyst and various acyl CoA (western blotting). Conditions: catalyst with the corresponding acyl CoA; FIG. 9.
Description: as §1, §2, §3, §4
In light of the above, a study was carried out on whether or not acylation other than acetylation would be possible using the developed catalyst.

In the next test the target is T2, reconstituted nucleosome (Homo sapiens, UniProt P04908+P06899+P62805+P68431).
T2 construct: made in house
Put plainly: Yield determination by LC-MS/MS and exhaustive analysis of lysine residue selectivity. Conditions: for lysine residue selectivity: acetylation of reconstituted nucleosome, FIGS. 5 and 6. The protocol: Cooled trichloroacetic acid (30 μL) was added, and the resultant was placed on ice for 30 minutes. After the centrifugation (4° C., 15000 rpm, 5 minutes), the supernatant was removed. After further centrifugation (4° C., 15000 rpm, 1 minute), the supernatant was again removed. Cooled acetone (450 μL) was added. After the centrifugation (4° C., 15000 rpm, 5 minutes), the supernatant was removed. After further centrifugation (4° C., 15000 rpm, 1 minute), the supernatant was again removed. The above procedure was repeated once more. […] A 1M sulfuric acid (25 μL) was added and placed on ice for 1 hour, followed by centrifugation (4° C., 15000 rpm, 5 minutes), and the supernatant was collected. Centrifugation (4° C., 15000 rpm, 1 minute) was performed again to collect the supernatant to combine with the earlier supernatant. The resultant was added with acetone (500 μL), followed by sufficient stirring, and was placed overnight at −30° C. After the centrifugation (4° C., 15000 rpm, 5 minutes), the supernatant was removed. After further centrifugation (4° C., 15000 rpm, 1 minute), the supernatant was again removed. After drying was performed with a centrifugal evaporator for 10 minutes, an aqueous solution of ammonium bicarbonate (0.1 M, 20 μL) was added. The resultant was added with a mixture of propionic anhydride and methanol (1:3, 20 μL) prepared immediately before, further added with ammonia water (15 μL), and was placed at room temperature for 30 minutes. Drying was performed with a centrifugal evaporator for 75 minutes, followed by treatment with a digestive enzyme.
In the case of trypsin: an aqueous solution of ammonium bicarbonate (0.1M, 50 μL) and trypsin (1 μg) were added, followed by reaction at 37° C. for 21 hours.
In the case of chymotrypsin: 100 mM Tris-HCl, 10 mM CaCl2 (50 μL, pH8.0), and chymotrypsin (8 μg) were added, followed by reaction at 25° C. for 21 hours.
A 5% aqueous solution of formic acid (25 μL) was added, followed by drying with a centrifugal evaporator for 75 minutes. The residue was dissolved in a 0.1% aqueous solution of formic acid (15 μL), and the resultant was used for LC-MS/MS.
Eksigent ekspert™ MicroLC 200
ESI-Q-TOF MS, positive-ion mode.
Precursor ions are designated, and for each of the precursor ions, 2 to 4 MS/MS fragment ions having the highest strength were selected. Ion extraction (±0.5 Da) was performed for the designated precursor ions and the MS/MS fragment ions, and the yield was calculated in accordance with the equation below.
For a chromatogram obtained by performing measurement in an Information Dependent Acquisition Mode, the yield was determined in accordance with the following equation from the peak area subjected to ion extraction (±0.5 Da) after designating the precursor ions. yield (%)=[A/A+P]×100 (here, A represents a peak area of an acetylated peptide and P represents a peak area of a propionylated peptide)

For test [3], the target named is T3, reconstituted nucleosome (H2BK120, H4K77) (Homo sapiens, UniProt P04908+P06899+P62805+P68431).
T3 construct: made in house
The test can be described thus: Lysine residue selective acetylation of reconstituted nucleosome (western blotting, residue-selective acetylated lysine antibodies). The settings on record: with acetyl CoA, FIG. 3B.
Description: as §1, §2
(§5) After washing with TBST, a secondary antibody (Anti-Rabbit IgG, HRP-linked, NA934V, GE) was reacted. The PVDF membrane was treated with a chemilluminescent detection reagent Luminata Forte Western HRP Substrate (Millipore), and the detection was performed using ImageQuant LAS 4000 (GE healthcare life sciences). […]
Next, the selectivity of lysine residues in histones was evaluated. A similar reaction was evaluated by western blotting using a residue-selective acetylation lysine antibody.

Another test deals with cytoplasm proteins. The test can be described thus: Comparison of reactivity of acetyl group donors with cytoplasm proteins (western blotting, anti-acetylated lysine antibody). The settings on record: acetyl group donor 1 mM, cytoplasm fraction 20%, room temperature, 10 hours; FIG. 1B. The protocol: Approximately 10^6 cells were detached from a culture dish by a trypsin treatment. After washed with PBS, the cell pellets were suspended in a cooled, cell lysis buffer [50 mM Tris (pH 7.5), 300 mMNaCl, 0.3% Triton X-100, protease inhibitor cocktail, and 1 mM PMSF], and placed on ice for 30 minutes. After the centrifugation (4° C., 1500 rpm, 2 minutes), the supernatant was collected as a cytoplasm fraction.
as §1, §2, §5

The mark [4] stands for this setting: Ligand-DSH 2 μM, acetyl CoA 1 mM, TCEP 100 μM, 5 hours.

SMILES strings stand for the structures. Square brackets hold non-standard residues; d marks the D form. Peptide text beside a SMILES is read from it. * marks the point of attachment. ξ: configuration not given here. Thr(3ξ) = CC(O)[C@H](N)C(=O)O; X1 = CN(CCC(=O)*)c1ccnc(CS)c1; ξR = N=C(N)NCCCC(N)C(=O)O; ξS = NC(CO)C(=O)O

Consider `CC(=O)NCCSC(C)=O`, for which the histone-selective acetylation entry in test [1] was “histone-selective acetylation was observed in the same way”.

Turning to `CSCC[C@H](NC(=O)CNC(=O)CCN(C)c1ccnc(CS)c1)C(=O)NC(CCCNC(=N)N)C(=O)N[C@@H](CC(C)C)C(=O)NC(CCCNC(=N)N)C(=O)N[C@@H](CO)C(=O)NCC(=O)N[C@@H](CCCNC(=N)N)C(=O)NC(CO)C(=O)N[C@H](C(=O)NCC(N)=O)C(C)O` (stereo partly shown) [LANA-DSH] (X1-GM[ξR]L[ξR]SGR[ξS][Thr(3ξ)]G-NH2), in test [2], the 2-hydroxy-iso-butyrylation result is listed as “enabled”, the biotinylation entry is given as “enabled”, the butyrylation entry is recorded as “enabled” and the glutarylation entry is “enabled”. Further, the malonylation result in test [2] was “enabled”. Also, at reconstituted nucleosome (setting [4]), the “acetylation yield of H2BK120” value is reported as 54%. Moreover, the lysine residue selectivity result at reconstituted nucleosome was “extremely high”. Also, the histone-selective acetylation result in test [1] is “histone-selective acetylation was achieved”. Besides, in test [3] (anti-acetyl Histone H2B (Lys120)), the “acetylation of H2BK120 (western blotting)” value was “strongly acetylated”.

With `CON(C(C)=O)C(C)=O` [NMD, N-methoxydiacetamide], the “non-selective acetylation of cytoplasm proteins” value in the test with cytoplasm proteins is “non-selectively acetylated a large quantity of protein”.

Consider `CN(CCCNC(=O)CCN(C)c1ccnc(CS)c1)CCCNC(=O)c1cc(NC(=O)c2cc(NC(=O)c3cc(NC(=O)c4nc(NC(=O)CCCNC(=O)c5cc(NC(=O)c6cc(NC(=O)c7cc(NC(=O)c8nccn8C)cn7C)cn6C)cn5C)cn4C)cn3C)cn2C)cn1C` [PIP-DSH], for which, at reconstituted nucleosome (setting [4]), the “acetylation yield of H3K36” value is 14%, the “acetylation yield of H3K56” value is listed as 9% and the “acetylation yield of H4K77” value worked out at 14%. The lysine residue selectivity result at reconstituted nucleosome was “high”. Further, in test [1], the histone-selective acetylation entry was “histone-selective acetylation was achieved”. For the same molecule, the “acetylation of H4K77 (western blotting)” value in test [3] (anti-acetyl Histone H4 (Lys77)) is on record as “strongly acetylated”.

For `CC(=O)SCCNC(=O)CCNC(=O)[C@H](O)C(C)(C)COP(=O)(O)OP(=O)(O)OC[C@H]1O[C@@H](n2cnc3c(N)ncnc32)[C@H](O)[C@@H]1OP(=O)(O)O` [acetyl CoA, reference compound], the histone-selective acetylation result in test [1] is listed as “acetylation did not proceed”. The “non-selective acetylation of cytoplasm proteins” value in the test with cytoplasm proteins is “did not cause such non-selective acetylation”.

The values are drawn from US11021461B2, “Artificial catalyst system for selective acylation of chromosome protein” (THE UNIVERSITY OF TOKYO, priority 2015, dated 2021).
